Results taken from paper PMC7010297, “How the initiating ribosome copes with ppGpp to translate mRNAs” (PLoS Biology, 2020).
Values joined by “and” are separate entries in the source; they are usually repeats but may differ in a detail not shown here. Equal values may be shown once.

Assays:
70S IC = molecular target: T1, 70S IC (Escherichia coli, UniProt P0A705); test: 70S IC formation by Bpy-tRNAi accommodation, stopped-flow; assay type: biochemical; set-up: K1, best-fit value: unit not given here; details: for A0, best-fit value / A1, best-fit value / K1, best-fit value / k2, best-fit value: fit Y=A0+A1*exp(-K1*x)+k2*x; for kfast (s-1) Avg: fluorescence
T1 construct: 6xHis (N); made in house
T1 sequence (P0A705 whole entry, looked up): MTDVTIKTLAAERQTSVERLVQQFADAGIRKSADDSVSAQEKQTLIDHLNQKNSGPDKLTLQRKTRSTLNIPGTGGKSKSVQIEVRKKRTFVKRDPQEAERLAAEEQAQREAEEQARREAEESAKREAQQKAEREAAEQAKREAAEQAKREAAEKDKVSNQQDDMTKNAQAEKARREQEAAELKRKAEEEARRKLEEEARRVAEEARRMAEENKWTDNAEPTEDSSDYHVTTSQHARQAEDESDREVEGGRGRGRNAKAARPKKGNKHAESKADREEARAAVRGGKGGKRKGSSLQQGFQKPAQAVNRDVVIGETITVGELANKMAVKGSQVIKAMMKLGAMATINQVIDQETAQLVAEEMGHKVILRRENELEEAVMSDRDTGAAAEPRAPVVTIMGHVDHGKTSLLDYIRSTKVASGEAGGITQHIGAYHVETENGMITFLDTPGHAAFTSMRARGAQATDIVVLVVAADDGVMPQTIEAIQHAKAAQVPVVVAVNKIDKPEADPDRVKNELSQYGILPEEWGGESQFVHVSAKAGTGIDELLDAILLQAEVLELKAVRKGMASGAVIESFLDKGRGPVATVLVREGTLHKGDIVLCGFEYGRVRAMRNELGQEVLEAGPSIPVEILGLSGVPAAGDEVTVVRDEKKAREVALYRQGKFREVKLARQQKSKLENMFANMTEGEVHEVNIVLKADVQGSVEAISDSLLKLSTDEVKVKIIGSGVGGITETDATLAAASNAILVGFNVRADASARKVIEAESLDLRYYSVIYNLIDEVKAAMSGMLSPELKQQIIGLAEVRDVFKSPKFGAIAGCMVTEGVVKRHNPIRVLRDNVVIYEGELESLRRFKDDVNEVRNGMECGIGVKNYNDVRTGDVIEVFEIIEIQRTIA
Experimental: Continuous lines indicate nonlinear regression fittings with a quadratic equation. Three measurements were performed; mean and standard deviation are plotted (S1 Data). (B) as (A) to measure the concentration dependence for each tested guanosine nucleotide at constant IF2 (1 μM). […] Continuous lines show best fits using exponential functions. (D) Formation of 70S IC as measured by Bpy-tRNAi accommodation in the P site of the ribosome; 0.1 μM 30S ICs were formed with Bpy-tRNAi and rapidly mixed with 0.3 μM 50S subunits on a stopped-flow apparatus as described in [14]. Colors are as in (C). Continuous lines show best fits using an exponential function for a single reaction step. Each stopped-flow trace results from the mean of 5 to 7 replicates.
(A) Scheme of 70S IC formation. […] Time traces were analyzed by nonlinear regression with exponential terms. […] Formation of 70S IC, as measured by Bpy-tRNAi accommodation in the absence (F) or presence of 200 μM ppGpp (G). Time traces were analyzed by nonlinear regression with one exponential term. […] Continuous lines show best fits using an exponential function for a single reaction step. All time traces are mean values of 5 to 10 replicates. Bar graphs show mean and standard errors (error bars) derived from the nonlinear regression fitting (D,E,H,I) (S1 Data).
To measure 70S pre-IC formation, a SX-20 stopped-flow instrument (Applied Photophysics, Leatherhead, UK) was set up for LS recording with an excitation wavelength of 430 nm. Scattered light was measured at an angle of 90° without a filter. Pseudo first-order conditions were approximated by using ≥3-fold excess of 50S subunits over 30S ICs; 0.2 μM 30S ICs were rapidly mixed in the instrument with 0.6 μM 50S at 25 °C. Bpy-tRNAi accommodation was measured essentially as described elsewhere. Briefly, 0.2 μM 30S ICs were formed using Bpy-tRNAi and rapidly mixed with 0.6 μM 50S at 25 °C. Fluorescence was excited at 470 nm and measured after a 495-nm longpass filter. Individual traces (6–11 traces) were averaged, and the resulting kinetic curve was approximated by single (F = A0 + A1*exp (-kapp1*t)) or double (F = A0 + A1*exp (-kapp1*t) + A2*exp (-kapp2*t)) exponential fit using Graphpad Prism 6.0 software (GraphPad, San Diego, California).

30S-bound IF2 (30S IC) = molecular target: T2, 30S-bound IF2 (30S IC) (Escherichia coli, UniProt P0A705); test: ppGpp (or GDP) to GTP competitive assay for 30S IC formation by MST; assay type: binding
T2 construct: 6xHis (N); made in house
T2 sequence (P0A705 whole entry, looked up): as above
Experimental: MST was calculated from the respective fluorescence time dependencies (S3 Fig). […] Symbols as in (B). […] Continuous lines indicate nonlinear regression fittings with quadratic (B and E) or same-site competition (G) functions. Three measurements were performed; mean and standard deviations are plotted (S1 Data).
[…] Symbols are as indicated, 3 measurements were performed, and mean and standard deviation are plotted (S1 Data). Continuous lines show nonlinear regression fittings with a same-site inhibition model. […] (PDF) Click here for additional data file.

Nc1nc2c(ncn2[C@@H]2O[C@H](COP(=O)(O)OP(=O)(O)O)[C@@H](OP(=O)(O)OP(=O)(O)O)[C@H]2O)c(=O)[nH]1 [ppGpp]
efficiency (amplitude) of 70S IC formation (Bpy-tRNAi accommodation) (70S IC; 0.2 mM nucleotide, no GTP): reduced efficiencies | A0, best-fit value (70S IC; mInfA): 0.98 | A1, best-fit value (70S IC; mInfA): 0.01 | K1, best-fit value (70S IC; mInfA): 1.82 | k2, best-fit value (70S IC; mInfA): -0.00033 | A0, best-fit value (70S IC; mMF1): 0.97 | A1, best-fit value (70S IC; mMF1): 0.0267 | K1, best-fit value (70S IC; mMF1): 1.27 | k2, best-fit value (70S IC; mMF1): -0.00023 | Fluorescence Amplitude Avg (70S IC; mRNA mInfA): 0.010 | kfast (s-1) Avg (70S IC; mRNA mInfA): 1.82 s⁻¹ | Fluorescence Amplitude Avg (70S IC; mRNA mMF1): 0.027 | kfast (s-1) Avg (70S IC; mRNA mMF1): 1.27 s⁻¹ | Fluorescence Amplitude Avg (70S IC; mRNA mTufA): 0.043 | kfast (s-1) Avg (70S IC; mRNA mTufA): 3.37 s⁻¹ | A0, best-fit value (70S IC; mTufA): 0.96 | A1, best-fit value (70S IC; mTufA): 0.0429 | K1, best-fit value (70S IC; mTufA): 3.37 | k2, best-fit value (70S IC; mTufA): -0.00059 | MST Average (30S-bound IF2 (30S IC); mInfA, Log [ppGpp] 0.29): 1046.47 a.u. | MST Average (30S-bound IF2 (30S IC); mInfA, Log [ppGpp] 0.59): 1038.08 a.u. | MST Average (30S-bound IF2 (30S IC); mInfA, Log [ppGpp] 0.89): 1028.93 a.u. | MST Average (30S-bound IF2 (30S IC); mInfA, Log [ppGpp] 1.19): 1018.24 a.u. | MST Replicates (a.u.) (30S-bound IF2 (30S IC); mInfA, Log [ppGpp] 1.19): 1017.94 a.u. and 1018.60 a.u. and 1018.17 a.u. | MST Average (30S-bound IF2 (30S IC); mInfA, Log [ppGpp] 1.49): 1003.04 a.u. | MST Replicates (a.u.) (30S-bound IF2 (30S IC); mInfA, Log [ppGpp] 1.49): 1002.79 a.u. and 1003.03 a.u. and 1003.30 a.u. | MST Average (30S-bound IF2 (30S IC); mInfA, Log [ppGpp] 1.80): 986.30 a.u. | MST Replicates (a.u.) (30S-bound IF2 (30S IC); mInfA, Log [ppGpp] 1.80): 985.49 a.u. and 986.54 a.u. and 986.87 a.u. | MST Average (30S-bound IF2 (30S IC); mInfA, Log [ppGpp] 2.10): 973.31 a.u. | MST Replicates (a.u.) (30S-bound IF2 (30S IC); mInfA, Log [ppGpp] 2.10): 972.70 a.u. and 973.61 a.u. and 973.64 a.u. | MST Average (30S-bound IF2 (30S IC); mInfA, Log [ppGpp] 2.40): 964.30 a.u. | MST Replicates (a.u.) (30S-bound IF2 (30S IC); mInfA, Log [ppGpp] 2.40): 963.79 a.u. | MST Average (30S-bound IF2 (30S IC); mInfA, Log [ppGpp] 2.70): 958.86 a.u. | MST Average (30S-bound IF2 (30S IC); mInfA, Log [ppGpp] -0.01): 1048.67 a.u. | MST Average (30S-bound IF2 (30S IC); mInfA, Log [ppGpp] -0.31): 1053.58 a.u. | MST Average (30S-bound IF2 (30S IC); mInfA, Log [ppGpp] -0.61): 1049.04 a.u. | MST Average (30S-bound IF2 (30S IC); mMF1, Log [ppGpp] 0.29): 1016.08 a.u. | MST Average (30S-bound IF2 (30S IC); mMF1, Log [ppGpp] 0.59): 1007.03 a.u. | MST Average (30S-bound IF2 (30S IC); mMF1, Log [ppGpp] 0.89): 999.03 a.u. | MST Average (30S-bound IF2 (30S IC); mMF1, Log [ppGpp] 1.19): 986.05 a.u. | MST Replicates (a.u.) (30S-bound IF2 (30S IC); mMF1, Log [ppGpp] 1.19): 985.88 a.u. and 986.00 a.u. and 986.26 a.u. | MST Average (30S-bound IF2 (30S IC); mMF1, Log [ppGpp] 1.49): 972.28 a.u. | MST Replicates (a.u.) (30S-bound IF2 (30S IC); mMF1, Log [ppGpp] 1.49): 971.54 a.u. and 972.59 a.u. and 972.70 a.u. | MST Average (30S-bound IF2 (30S IC); mMF1, Log [ppGpp] 1.80): 959.11 a.u. | MST Replicates (a.u.) (30S-bound IF2 (30S IC); mMF1, Log [ppGpp] 1.80): 958.37 a.u. and 959.24 a.u. and 959.71 a.u. | MST Average (30S-bound IF2 (30S IC); mMF1, Log [ppGpp] 2.10): 947.40 a.u. | MST Replicates (a.u.) (30S-bound IF2 (30S IC); mMF1, Log [ppGpp] 2.10): 946.23 a.u. and 947.67 a.u. and 948.30 a.u. | MST Average (30S-bound IF2 (30S IC); mMF1, Log [ppGpp] 2.40): 939.79 a.u. | MST Replicates (a.u.) (30S-bound IF2 (30S IC); mMF1, Log [ppGpp] 2.40): 938.92 a.u. | MST Average (30S-bound IF2 (30S IC); mMF1, Log [ppGpp] 2.70): 942.02 a.u. | MST Average (30S-bound IF2 (30S IC); mMF1, Log [ppGpp] -0.01): 1022.73 a.u. | MST Average (30S-bound IF2 (30S IC); mMF1, Log [ppGpp] -0.31): 1023.54 a.u. | MST Average (30S-bound IF2 (30S IC); mMF1, Log [ppGpp] -0.61): 1029.40 a.u.
